From ChEMBL document CHEMBL5465560, “Selectivity Literature for EUbOPEN Chemogenomic Library” (2024) come the findings set out here.

The target in test [1] is Serine/threonine-protein kinase 33 (Homo sapiens) (UniProt Q9BYT3). The experiment in a line: Selectivity interaction (KinomeScan (DiscoverX)) EUB0000695a STK33. To be noted: at 100 nM.
The target in test [2] is Leukocyte tyrosine kinase receptor (Homo sapiens, UniProt P29376). The experiment in a line: Selectivity interaction (Kinase panel (Invitrogen)) EUB0000639a LTK. The note with it: at 200 nM.
Chain of Leukocyte tyrosine kinase receptor (P29376 whole entry): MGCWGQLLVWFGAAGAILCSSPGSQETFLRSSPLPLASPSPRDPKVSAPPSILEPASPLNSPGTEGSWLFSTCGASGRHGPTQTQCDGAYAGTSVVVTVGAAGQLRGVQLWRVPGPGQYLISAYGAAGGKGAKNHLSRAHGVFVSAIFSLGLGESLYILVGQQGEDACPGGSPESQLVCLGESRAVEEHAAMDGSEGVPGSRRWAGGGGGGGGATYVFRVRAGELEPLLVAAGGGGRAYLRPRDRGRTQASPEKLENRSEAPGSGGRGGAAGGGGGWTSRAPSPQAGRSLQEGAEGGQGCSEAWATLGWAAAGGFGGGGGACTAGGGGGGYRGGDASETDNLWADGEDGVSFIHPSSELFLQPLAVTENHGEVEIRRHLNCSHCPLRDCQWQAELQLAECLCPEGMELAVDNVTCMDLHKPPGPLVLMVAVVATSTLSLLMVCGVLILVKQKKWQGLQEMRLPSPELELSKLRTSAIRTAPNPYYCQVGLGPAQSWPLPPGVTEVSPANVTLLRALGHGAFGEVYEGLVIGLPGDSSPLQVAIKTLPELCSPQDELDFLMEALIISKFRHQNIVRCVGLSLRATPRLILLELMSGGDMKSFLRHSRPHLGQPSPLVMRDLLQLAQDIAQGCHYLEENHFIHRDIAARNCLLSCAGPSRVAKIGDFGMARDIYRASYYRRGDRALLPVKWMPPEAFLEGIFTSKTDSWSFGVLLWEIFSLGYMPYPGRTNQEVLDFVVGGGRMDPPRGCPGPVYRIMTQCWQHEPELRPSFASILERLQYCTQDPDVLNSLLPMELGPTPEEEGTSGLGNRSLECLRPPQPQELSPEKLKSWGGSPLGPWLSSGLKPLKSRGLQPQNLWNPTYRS
Test [3] deals with T1, Protein kinase C epsilon type (Homo sapiens) (UniProt Q02156).
T1 sequence (whole entry): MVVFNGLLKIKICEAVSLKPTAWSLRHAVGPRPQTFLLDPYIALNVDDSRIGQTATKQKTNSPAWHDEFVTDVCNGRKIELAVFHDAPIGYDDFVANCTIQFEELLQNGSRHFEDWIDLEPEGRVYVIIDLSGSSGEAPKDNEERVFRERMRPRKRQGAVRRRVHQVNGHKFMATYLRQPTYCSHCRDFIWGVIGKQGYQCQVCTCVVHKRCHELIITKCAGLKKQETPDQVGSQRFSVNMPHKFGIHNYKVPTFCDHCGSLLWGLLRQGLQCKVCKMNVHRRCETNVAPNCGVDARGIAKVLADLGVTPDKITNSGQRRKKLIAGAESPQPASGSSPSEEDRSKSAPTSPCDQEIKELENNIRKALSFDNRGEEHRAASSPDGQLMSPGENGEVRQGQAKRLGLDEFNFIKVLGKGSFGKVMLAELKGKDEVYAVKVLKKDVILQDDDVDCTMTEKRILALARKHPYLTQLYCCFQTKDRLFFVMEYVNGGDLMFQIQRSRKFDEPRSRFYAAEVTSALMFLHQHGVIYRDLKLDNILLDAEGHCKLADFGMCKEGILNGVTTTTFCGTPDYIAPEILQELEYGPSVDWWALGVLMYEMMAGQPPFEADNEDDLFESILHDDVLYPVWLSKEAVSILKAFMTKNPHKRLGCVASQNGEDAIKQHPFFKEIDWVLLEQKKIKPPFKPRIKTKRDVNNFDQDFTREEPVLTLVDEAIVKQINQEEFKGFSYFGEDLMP
Description: Selectivity interaction (KinomeScan (DiscoverX)) EUB0000229b PRKCE. The note with it: at 10 µM.

The target in test [4] is T2, Ephrin type-B receptor 2 (Homo sapiens) (UniProt P29323).
T2 sequence (whole entry): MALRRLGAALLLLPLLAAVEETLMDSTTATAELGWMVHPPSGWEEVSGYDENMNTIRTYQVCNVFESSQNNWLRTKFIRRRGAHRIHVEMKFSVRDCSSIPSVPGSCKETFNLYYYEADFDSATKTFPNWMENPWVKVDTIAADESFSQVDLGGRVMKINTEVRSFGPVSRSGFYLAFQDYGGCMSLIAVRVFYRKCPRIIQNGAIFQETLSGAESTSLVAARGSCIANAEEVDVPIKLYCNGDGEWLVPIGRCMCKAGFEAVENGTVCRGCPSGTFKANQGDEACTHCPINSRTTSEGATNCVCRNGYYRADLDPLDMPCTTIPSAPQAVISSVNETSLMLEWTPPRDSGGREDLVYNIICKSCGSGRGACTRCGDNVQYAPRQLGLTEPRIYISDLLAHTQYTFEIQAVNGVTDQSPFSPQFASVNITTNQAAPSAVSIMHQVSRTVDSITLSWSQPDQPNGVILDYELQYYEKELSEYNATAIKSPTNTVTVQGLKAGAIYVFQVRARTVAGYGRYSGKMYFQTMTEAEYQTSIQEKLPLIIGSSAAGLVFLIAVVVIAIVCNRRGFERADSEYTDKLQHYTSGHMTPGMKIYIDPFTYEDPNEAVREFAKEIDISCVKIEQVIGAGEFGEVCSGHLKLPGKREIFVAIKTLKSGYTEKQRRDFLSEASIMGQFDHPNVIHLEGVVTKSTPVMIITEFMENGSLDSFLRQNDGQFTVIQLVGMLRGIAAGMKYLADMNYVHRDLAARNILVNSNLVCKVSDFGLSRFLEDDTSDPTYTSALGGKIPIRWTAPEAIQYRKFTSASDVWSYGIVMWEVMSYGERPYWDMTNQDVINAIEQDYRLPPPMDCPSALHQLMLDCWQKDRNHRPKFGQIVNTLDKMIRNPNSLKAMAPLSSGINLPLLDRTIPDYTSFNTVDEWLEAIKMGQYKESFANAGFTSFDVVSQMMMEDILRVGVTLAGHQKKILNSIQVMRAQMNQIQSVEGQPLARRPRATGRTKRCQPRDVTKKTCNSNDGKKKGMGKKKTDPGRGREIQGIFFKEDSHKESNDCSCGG
The experiment in a line: Selectivity interaction (KinomeScan (DiscoverX)) EUB0000595a EPHB2. The note with it: at 10 µM.

For test [5], the target named is Tyrosine-protein kinase Fes/Fps (Homo sapiens) (UniProt P07332). The experiment in a line: Selectivity interaction (KinomeScan (DiscoverX)) EUB0000618a FES. To be noted: at 10 µM.
Chain of Tyrosine-protein kinase Fes/Fps (Homo sapiens) (P07332 whole entry): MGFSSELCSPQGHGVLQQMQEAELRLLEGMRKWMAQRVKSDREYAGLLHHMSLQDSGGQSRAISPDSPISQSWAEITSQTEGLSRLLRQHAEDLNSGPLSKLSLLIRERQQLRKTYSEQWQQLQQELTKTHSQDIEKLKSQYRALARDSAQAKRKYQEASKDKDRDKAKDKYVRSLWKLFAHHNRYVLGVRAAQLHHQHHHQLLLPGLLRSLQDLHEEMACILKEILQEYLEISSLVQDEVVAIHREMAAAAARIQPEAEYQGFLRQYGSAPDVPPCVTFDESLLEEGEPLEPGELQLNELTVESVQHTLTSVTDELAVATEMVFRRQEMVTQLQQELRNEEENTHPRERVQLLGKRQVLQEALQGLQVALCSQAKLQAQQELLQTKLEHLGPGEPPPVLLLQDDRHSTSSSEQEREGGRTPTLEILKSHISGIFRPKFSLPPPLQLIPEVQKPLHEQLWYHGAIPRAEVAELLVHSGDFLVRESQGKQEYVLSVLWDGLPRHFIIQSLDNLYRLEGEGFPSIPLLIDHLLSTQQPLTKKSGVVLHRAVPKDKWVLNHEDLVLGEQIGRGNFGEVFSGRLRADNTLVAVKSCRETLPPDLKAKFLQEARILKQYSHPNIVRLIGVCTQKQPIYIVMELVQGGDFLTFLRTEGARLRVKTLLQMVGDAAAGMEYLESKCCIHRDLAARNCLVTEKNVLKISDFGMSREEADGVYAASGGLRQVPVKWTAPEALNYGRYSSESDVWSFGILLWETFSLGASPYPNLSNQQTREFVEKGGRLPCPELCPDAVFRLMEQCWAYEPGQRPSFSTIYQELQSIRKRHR

Chain of Serine/threonine-protein kinase 33 (Homo sapiens) (Q9BYT3 whole entry, looked up): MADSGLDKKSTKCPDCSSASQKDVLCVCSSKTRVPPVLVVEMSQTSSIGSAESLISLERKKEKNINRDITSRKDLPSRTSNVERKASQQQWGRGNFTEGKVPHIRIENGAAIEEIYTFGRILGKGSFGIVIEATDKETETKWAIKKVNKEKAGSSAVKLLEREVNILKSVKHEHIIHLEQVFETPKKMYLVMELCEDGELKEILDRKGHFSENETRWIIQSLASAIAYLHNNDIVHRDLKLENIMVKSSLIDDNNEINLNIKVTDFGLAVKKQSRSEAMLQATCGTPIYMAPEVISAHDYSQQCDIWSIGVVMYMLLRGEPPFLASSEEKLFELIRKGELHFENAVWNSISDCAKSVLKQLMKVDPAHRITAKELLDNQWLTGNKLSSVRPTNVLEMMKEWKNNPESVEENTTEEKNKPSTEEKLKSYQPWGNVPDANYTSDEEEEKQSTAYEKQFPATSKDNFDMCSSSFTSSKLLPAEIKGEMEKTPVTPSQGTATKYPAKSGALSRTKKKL

`Cc1cc(F)c(C(=O)Nc2cccc(-c3nncn3C(C)C)n2)cc1-n1cnc(C2CC2)c1` had a % of control in test [1] of 78%. As for `CC[C@@H]1[C@H](F)C(=O)N[C@@H]1COc1nccc2cc(C(N)=O)c(OC)cc12` [ZIMLOVISERTIB], the % of inhibition in test [2] is 5.58%.

As to `COc1cc(N(C)c2ccnc3ccc(C(F)(F)F)cc23)cc(OC)c1OC`, in test [3], the % binding came to 55%. In test [4], `COCC(=O)NC/C=C/c1ccc2ncnc(Nc3ccc(Oc4ccc(C)nc4)c(C)c3)c2c1` [CP-724714] had a % of control of 100%. `O[C@H]1CC[C@H](Nc2ncc3nc(Nc4c(F)cc(F)cc4F)n([C@H]4CCOC4)c3n2)CC1`: in test [5], the % of control turned out to be 100%.
